{
  "source": "patent US12404251B2",
  "about": "“Small molecule compound” (Cerepeut, Inc., priority 2017, dated 2025)",
  "key": {"in vitro [1]": {"assay": "in vitro", "assay_type": "in vitro ADME", "details": "human"}, "U118MG": {"system": "U118MG", "assay": "CellTiter-Glo cell viability, U118MG glioblastoma model", "assay_type": "cell-based, human", "details": "72 hour incubation", "protocol": "(§1) Cell seeding (Day “−1”): The cell density of eight adherent cell lines was adjusted according to supplier-recommended information. 50 μL cells were seeded in four 384-well-plates, and 50 μL DPBS was added to the edge wells.\n(§2) Compound preparation (Day 0): All test compounds were dissolved in DMSO and stored in a nitrogen cabinet. The stock concentration of the test compounds was 120 mM. The stock concentration of the reference compounds was 10 mM. The reference compound paclitaxel was diluted with DMSO to provide a 400 μM stock solution.\n(§3) Cell treatment with test compounds (Day 0): Test compounds (125 nL in DMSO) were added to the wells using an ECHO liquid handling system (Labcyte Inc.) and serially diluted by three fold, providing 10 doses in each series with a maximum concentration of 300 μM. […]\n(§4) Assay (Day 3): After the cells were treated with the compounds for 72 hours, the plates were equilibrated at room temperature for approximately 30 minutes. 25 μL of CellTiter Glo reagent was added to each well, and the luminescence in each well was measured after 10 min using an ENVISION fluorescence plate reader (PerkinElmer). […]\n(§5) To evaluate the anti-tumor activity of CPT-2008, the growth inhibitory effect of the compound was measured in various human cancer cell lines after 72 hour incubation. […] The data recorded for the paclitaxel reference compound were consistent with the historical published data."}, "A2780": {"system": "A2780", "assay": "CellTiter-Glo cell viability, A2780 ovarian cancer model", "assay_type": "cell-based, human", "details": "A2780, 72 hour incubation", "protocol": "as §1, §2, §3, §4, §5"}, "[2]": {"assay": "Pharmacokinetics in Sprague-Dawley rats (plasma and brain)", "assay_type": "in vivo, rat", "details": "for bioavailability: Sprague-Dawley, rat, in vivo", "protocol": "Sprague-Dawley rats were administered CPT-2008 by IV or PO. Blood samples (about 1 mL) were collected via cardiac puncture after euthanasia by carbon dioxide inhalation at 5 min, 15 min, 30 min, 1 h, 2 h, 4 h, 8 h, 24 h of post dose. Blood samples were placed into tubes containing heparin sodium and centrifuged at 3500 rpm for 10 minutes at 4° C. to separate plasma from the samples. Following centrifugation, the resulting plasma was transferred to labeled tubes and stored frozen at −80° C. pending bioanalysis. The brain each studied animal at each time point was collected after the animal was euthanized by carbon dioxide inhalation. The whole tissue was harvested, excised and then placed into one tube per tissue per animal. The tissue samples were placed on dry ice and then stored at −80° C. until bioanalysis."}, "NCI-H1299": {"system": "NCI-H1299", "assay": "CellTiter-Glo cell viability, NCI-H1299 NSCLC model", "assay_type": "cell-based, human", "details": "NCI-H1299, 72 hour incubation", "protocol": "as §1, §2, §3, §4, §5"}, "T98G": {"system": "T98G", "assay": "CellTiter-Glo cell viability, T98G glioblastoma model", "assay_type": "cell-based, human", "details": "72 hour incubation", "protocol": "as §1, §2, §3, §4, §5"}, "NCI-H82": {"system": "NCI-H82", "assay": "CellTiter-Glo cell viability, NCI-H82 SCLC model", "assay_type": "cell-based, human", "details": "NCI-H82, 72 hour incubation", "protocol": "as §1, §2, §3, §4, §5"}, "Jurkat": {"system": "Jurkat", "assay": "CellTiter-Glo cell viability, Jurkat T cell leukemia model", "assay_type": "cell-based, human", "details": "72 hour incubation", "protocol": "as §1, §2, §3, §4, §5"}, "A549": {"system": "A549", "assay": "CellTiter-Glo cell viability, A549 NSCLC model", "assay_type": "cell-based, human", "details": "A549, 72 hour incubation", "protocol": "as §1, §2, §3, §4, §5"}, "paclitaxel-treated rats": {"system": "paclitaxel-treated rats", "assay": "Paclitaxel-induced neuropathic pain model, paw withdrawal test", "assay_type": "in vivo, rat", "details": "100 mg/kg intraperitoneal; 1.5 h, 3 h, 4.5 h post dosing; vs vehicle (FIG. 20)", "protocol": "An estimated 30-40% of cancer patients undergoing chemotherapy experience peripheral neuropathic pain, a neuroinflammation-induced debilitating side effect that causes patients to stop their treatment early or take lower doses. The effects of CPT-2008 in reducing neuropathic pain were studied in paclitaxel-treated rats. After paclitaxel treatment for 8 days, Sprague-Dawley rats were housed for additional days. On day 22, 16 rats were randomly separated into two groups. One group was dosed with vehicle, and the other group was dosed via intraperitoneal injection with CPT-2008 at 100 mg/kg. Pain (mechanical allodynia) test subjects was assessed using a paw withdrawal test (PWT) as described by Xie (“Activation of notch signaling mediates the induction and maintenance of mechanical allodynia in a rat model of neuropathic pain.” Molecular Medicine Reports 12: 639-644, 2015). Rats were measured for paw withdrawal threshold post dosing of test compound at 1.5 h, 3 h, and 4.5 h."}, "GBM cells": {"system": "GBM cells", "assay": "Mitochondrial morphology, TOM-20 immunostaining", "assay_type": "cell-based, human", "details": "vs DMSO control (FIG. 16)", "from_the_text": "GBM cells treated with DMSO (control) or CPT-2008 in DMSO were immunostained for TOM-20 to reveal mitochondrial morphology.\n(§6) CPT-2008 affects mitochondrial function. […] Given the important role of mitochondria in maintaining cancer cells, especially cancer stem cells, the effects of CPT-2008 on a number of mitochondrial parameters in human glioblastoma (GBM) cells were texted next. First, the effects of CPT-2008 on mitochondrial ROS level were studied. For this purpose, the mito-SOX dye was used. Mito-SOX can specifically monitor mitochondrial ROS levels. […] The effect of CPT-2008 on mitochondrial membrane potential, a key factor that determines mitochondrial health and activity, was also measured using the TRM dye. […] The effect of CPT-2008 on mitochondrial calcium homeostasis was also measured using the Rhod-2AM dye, which specifically monitors mitochondrial calcium levels. […] The effect of CPT-2008 on mitochondrial morphology was also measured using immunostaining of the mitochondrial outer membrane marker Tom20. […] Finally, the effect of CPT-2008 on the self-renewal of GBM cells was tested."}, "human GBM cells [3]": {"system": "human GBM cells", "assay": "Mitochondrial membrane potential, TMRM staining", "assay_type": "cell-based", "details": "vs DMSO vehicle (FIG. 17)", "from_the_text": "GBM cells treated with DMSO vehicle or with CPT-2008 in DMSO were stained with TMRM to probe mitochondrial membrane potential.\nas §6"}, "Molt-4": {"system": "Molt-4", "assay": "CellTiter-Glo cell viability, Molt-4 T-ALL model", "assay_type": "cell-based, human", "details": "Molt-4, 72 hour incubation", "protocol": "as §1, §2, §3, §4, §5"}, "MCF7": {"system": "MCF7", "assay": "CellTiter-Glo cell viability, MCF7 breast cancer model", "assay_type": "cell-based, human", "details": "MCF7, 72 hour incubation", "protocol": "as §1, §2, §3, §4, §5"}, "Sprague-Dawley rats": {"system": "Sprague-Dawley rats", "assay": "Rat middle cerebral artery occlusion (MCAO) stroke model", "assay_type": "in vivo", "details": "rat MCAO 1.5 h, 24 h reperfusion; 25-100 mg/kg intraperitoneally 0 h and 8 h after reperfusion; TTC staining; compared with edaravone 6 mg/kg", "protocol": "Edaravone (3-methyl-1-phenyl-2-pyrazolin-5-one) is a reactive oxygen species (ROS) scavenger approved for the treatment of stroke and ALS in Japan, and for the treatment of ALS in the United States. The efficacy of CPT-2008 for preventing brain damage in a rat middle cerebral artery occlusion (MCOA) model was compared with the efficacy of edaravone. Sprague-Dawley rats were dosed with vehicle, edaravone (6 mg/kg), or CPT-2008 (25-100 mg/kg), and the level of infarcted brain tissue was assessed. In this study rats underwent middle cerebral artery occlusion (MCAO) for 1.5 h followed by 24 h reperfusion. CPT-2008 was given intraperitoneally 0 h and 8 h after reperfusion, and behavior deficits and brain insult were assessed by Longa score scale and TTC staining, respectively. […] It is believed that the improved benefit of CPT-2008 is due, in part, to prevention ROS formation in brain tissue mitochondria."}, "human GBM cells [4]": {"system": "human GBM cells", "assay": "Mitochondrial ROS, Mito-SOX staining", "assay_type": "cell-based", "details": "vs DMSO control (FIG. 15)", "from_the_text": "GBM cells treated with DMSO vehicle (control) or with CPT-2008 in DMSO were stained with Mito-SOX to probe mitochondrial ROS level.\nas §6"}, "human GBM cells [5]": {"system": "human GBM cells", "assay": "Self-renewal of GBM cells (neurosphere formation)", "assay_type": "cell-based", "details": "20 uM CPT-2008 vs DMSO vehicle (FIG. 18)", "protocol": "Control: cells treated with DMSO vehicle; CPT-2008: cells treated with 20 uM CPT-2008.\nas §6"}, "human GBM cells [6]": {"system": "human GBM cells", "assay": "Mitochondrial calcium, Rhod-2AM staining", "assay_type": "cell-based", "details": "vs DMSO control (FIG. 14)", "from_the_text": "GBM cells treated with DMSO vehicle (control) or with CPT-2008 in DMSO were stained with Rhod-2AM to probe mitochondrial calcium (mito-Ca^2+) level. CPT-2008 elevated mito-Ca^2+.\nas §6"}, "HCT116": {"system": "HCT116", "assay": "CellTiter-Glo cell viability, HCT116 colorectal cancer model", "assay_type": "cell-based, human", "details": "HCT116, 72 hour incubation", "protocol": "as §1, §2, §3, §4, §5"}, "NCI-H446": {"system": "NCI-H446", "assay": "CellTiter-Glo cell viability, NCI-H446 SCLC model", "assay_type": "cell-based, human", "details": "NCI-H446, 72 hour incubation", "protocol": "as §1, §2, §3, §4, §5"}, "in vitro [7]": {"assay": "in vitro", "assay_type": "in vitro ADME", "details": "human", "remark": "listed apart in the source"}},
  "note": "“Also recorded” adds a separate entry of the source.",
  "data": [
    {"smiles": "COc1cc(-n2c(S)nc3cc(OC)c(Cl)cc3c2=O)c(Cl)cc1Cl", "note": "[CPT-2008, 6-chloro-3-(2,4-dichloro-5-methoxyphenyl)-2-mercapto-7-methoxyquinazolin-4(3H)-one]", "values": [
      {"measurement": "stability in microsomes", "setting": "in vitro [1]", "value": "excellent stability"},
      {"measurement": "half-life", "setting": "in vitro [1]; microsomes", "value": "~3.6", "unit": "h"},
      {"measurement": "IC50", "setting": "U118MG", "value": "low μM range"},
      {"measurement": "IC50", "setting": "A2780", "value": "nM range"},
      {"measurement": "crossing of the blood brain barrier", "setting": "[2]; Sprague-Dawley rats, IV or PO (FIG. 21A, 21B)", "value": "efficiently cross the blood brain barrier"},
      {"measurement": "bioavailability", "setting": "[2]; brain bioavailability", "value": 39, "unit": "%"},
      {"measurement": "bioavailability", "setting": "[2]; plasma bioavailability", "value": 94.5, "unit": "%"},
      {"measurement": "IC50", "setting": "NCI-H1299", "value": "low μM range"},
      {"measurement": "IC50", "setting": "T98G", "value": "low μM range"},
      {"measurement": "IC50", "setting": "NCI-H82", "value": "nM range"},
      {"measurement": "IC50", "setting": "Jurkat", "value": "nM range"},
      {"measurement": "IC50", "setting": "A549", "value": "low μM range"},
      {"measurement": "paw withdrawal threshold (mechanical allodynia)", "setting": "paclitaxel-treated rats", "value": "increased threshold values"},
      {"measurement": "mitochondrial morphology", "setting": "GBM cells", "value": "dramatic fragmentation of mitochondria; also recorded: induced mitochondrial size reduction"},
      {"measurement": "mitochondrial membrane potential", "setting": "human GBM cells [3]", "value": "dramatic reduction; also recorded: dramatically reduced"},
      {"measurement": "IC50", "setting": "Molt-4", "value": "low μM range"},
      {"measurement": "IC50", "setting": "MCF7", "value": "low μM range"},
      {"measurement": "level of infarcted (dead) brain tissue", "setting": "Sprague-Dawley rats", "value": "reduced levels of dead brain tissue"},
      {"measurement": "mitochondrial ROS level", "setting": "human GBM cells [4]", "value": "significant increase; also recorded: significantly elevated"},
      {"measurement": "self-renewal of GBM cells (ability to form neurospheres)", "setting": "human GBM cells [5]", "value": "significantly inhibited; also recorded: lost such ability"},
      {"measurement": "mitochondrial calcium (mito-Ca2+) level", "setting": "human GBM cells [6]", "value": "caused an increase; also recorded: elevated"},
      {"measurement": "IC50", "setting": "HCT116", "value": "low μM range"},
      {"measurement": "IC50", "setting": "NCI-H446", "value": "nM range"},
      {"measurement": "stability in hepatocytes", "setting": "in vitro [7]", "value": "excellent stability"},
      {"measurement": "half-life", "setting": "in vitro [7]; hepatocytes, half-life", "value": "~94.3", "unit": "h"}
    ]}
  ]
}
